Measured values from BigSolDB 2.1.

CC(=O)OC(OC(C)=O)c1ccc([N+](=O)[O-])o1
solubility (mole fraction)
Conditions | in 1,4-dioxane | in DMF | in THF | in acetone | in acetonitrile | in ethyl acetate | in methanol | in n-hexane | in n-propanol | in toluene
278.15 K | 0.0821 | 0.161 | 0.121 | 0.0864 | 0.0016 | 0.002 | 0.0778 | 0.0285 | 0.0435 | 0.141
283.15 K | 0.0954 | 0.174 | 0.146 | 0.108 | 0.002 | 0.0031 | 0.0834 | 0.0358 | 0.0474 | 0.154
288.15 K | 0.109 | 0.192 | 0.181 | 0.127 | 0.0028 | 0.0048 | 0.0898 | 0.0458 | 0.0513 | 0.171
293.15 K | 0.131 | 0.209 | 0.217 | 0.156 | 0.0038 | 0.0068 | 0.0995 | 0.0562 | 0.0571 | 0.192
298.15 K | 0.146 | 0.227 | 0.256 | 0.182 | 0.0052 | 0.0101 | 0.108 | 0.0721 | 0.0625 | 0.211
303.15 K | 0.166 | 0.248 | 0.298 | 0.214 | 0.0069 | 0.0143 | 0.118 | 0.0883 | 0.0687 | 0.239
308.15 K | 0.188 | 0.271 | 0.341 | 0.249 | 0.0093 | 0.02 | 0.129 | 0.109 | 0.0761 | 0.267
313.15 K | 0.214 | 0.296 | 0.385 | 0.291 | 0.0126 | 0.0283 | 0.143 | 0.133 | 0.0843 | 0.293
318.15 K | 0.237 | 0.319 | 0.434 | 0.33 | 0.0167 | 0.0405 | 0.155 | 0.162 | 0.0924 | 0.33
323.15 K | 0.267 | 0.351 | 0.488 | 0.379 | 0.0215 | 0.0548 | 0.173 | 0.196 | 0.104 | 0.373
